Measured values from US20260337156A1, “SOLUBILIZING COMPOUNDS” (Vivesto AB, priority 2022, published 2026).

Assays:
Assay type in all cases: physicochemical
[1] = particle size and polydispersity index of drug micelles over time (ZetaSizer); details: docetaxel:compound 1:5, docetaxel 0.5 mg/mL; for change of particle size and polydispersity index over time: 0-24 h
Experimental: Micellar size was measured using a ZetaSizer from Malvern Panalytical.
(§1) A stock solution of docetaxel in methanol was mixed with a stock solution of compound 1 in a round bottom flask. The mixture was evaporated to dryness in a rotary evaporator. Final drying was performed in a desiccator to remove residual solvent. Hydration of the dried film was performed by adding water for injection (1.0 mL) to a concentration of 1 mg/mL of docetaxel. The resulting solution was filtered through a 0.22 μm sterile filter and further diluted with 0.9% sodium chloride solution to 0.5 mg/mL of docetaxel. […]
(§2) A stock solution of cyclosporin in methanol was mixed with a stock solution of compound 1 in a round bottom flask. The mixture was evaporated to dryness in a rotary evaporator. Final drying was performed in a desiccator to remove residual solvent. Hydration of the dried film was performed by adding water for injection (1.0 mL) to a concentration of 1 mg/mL of cyclosporin. The resulting solution was filtered through a 0.22 μm sterile filter and further diluted with 0.9% sodium chloride solution to 0.5 mg/mL of cyclosporin. The final weight ratio of cyclosporin to micelle forming agent was 1:3.
(§3) A stock solution of docetaxel in methanol was mixed with a stock solution of compound 3 in a round bottom flask. The mixture was evaporated to dryness in a rotary evaporator. Final drying was performed in a desiccator to remove residual solvent. Hydration of the dried film was performed by adding water for injection (1.0 mL) to a concentration of 1 mg/mL of docetaxel. The resulting solution was filtered through a 0.22 μm sterile filter and further diluted with 0.9% sodium chloride solution to 0.5 mg/mL of Docetaxel. The final weight ratio of docetaxel to micelle forming agent was 1:3.
as §2, with “compound 3” for “compound 1”
as §1, with “compound 4” for “compound 1”
as §3, with “compound 5” for “compound 3”, “of docetaxel.” for “of Docetaxel.”
A stock solution of cabazitaxel in methanol was mixed with a stock solution of compound 5 in a round bottom flask. The mixture was evaporated to dryness in a rotary evaporator. Final drying was performed in a desiccator to remove residual solvent. Hydration of the dried film was performed by adding water for injection (1.0 mL) to a concentration of 1 mg/mL of cabazitaxel. […]

[2] = appearance of the hydrated drug formulation; details: formulation with docetaxel
Experimental: 3.8 mg of compound 1 was dispensed into a 25 mL round bottom flask and dissolved in methanol (2 mL). 240 μL of a stock solution of docetaxel in methanol (5 mg/mL) was added.
(§4) The solution was evaporated to dryness in a rotary evaporator. Final drying was performed in a desiccator to remove residual solvent. Hydration of the dried film was performed by adding water for injection (1.2 mL). […] Drug loading capacity is defined as the ratio of amount API:(API+excipient).
(§5) 11 mg of example 1 was dispensed into a 25 mL round bottom flask and dissolved in methanol (2 mL). 740 μL of a stock solution of docetaxel in methanol (4.96 mg/mL) was added. The solution was evaporated to dryness in a rotary evaporator. Final drying was performed in a desiccator to remove residual solvent.
as §5, with “4.5” for “11”, “compound” for “example”, “1500” for “740”, “cabazitaxel” for “docetaxel”, “(1.00” for “(4.96”
as §5, with “4.5” for “11”, “compound” for “example”, “1500” for “740”, “cyclosporin” for “docetaxel”, “(1.00” for “(4.96”, “solvent. […]” for “solvent.”
4.5 mg of compound 4 was dispensed into a round bottom flask and dissolved in methanol (3 mL). […] of a stock solution of docetaxel in methanol (4.96 mg/mL) was added. The solution was evaporated to dryness in a rotary evaporator. Final drying was performed in a desiccator (40 min) to remove residual solvent. Rehydration of the dried film was performed by adding 0.9% sodium chloride solution (1.5 mL).

[3] = micellar particle size and polydispersity index (ZetaSizer, dynamic light scattering) of drug formulations at different dilutions; details: micelles with docetaxel
Experimental: The particle size of the micelles in the composition is typically in the range of about 5 to about 150 nm. The particle size may be determined e.g. using Dynamic Light Scattering (DLS) in 0.9% NaCl at 1 mg/mL drug concentration, preferably using a red laser with a wavelength of 633 nm.
Micellar size was measured using a ZetaSizer from Malvern Panalytical. […]
20 mg of example 1 was dispensed into a 25 mL round bottom flask and dissolved in methanol (3 mL). 800 μL of a stock solution of docetaxel in methanol (5 mg/mL) was added. The solution was evaporated to dryness in a rotary evaporator. Final drying was performed in a desiccator to remove residual solvent. Hydration of the dried film was performed by adding water for injection (1.0 mL) to a concentration of 4 mg/mL of docetaxel. The 4 mg/mL concentration was further diluted with 0.9% sodium chloride according to the table below. […]
as §3, with “A serial dilution was performed for the system docetaxel:compound 1. A” for “A”, “the micelle forming agent (compound 1)” for “compound 3”, “flask at a weight ratio of 1:5.” for “flask.”, “solution.” for “solution to 0.5 mg/mL of Docetaxel. The final weight ratio of docetaxel to micelle forming agent was 1:3.”
as §5, with “4.5” for “11”, “compound” for “example”, “1500” for “740”, “cabazitaxel” for “docetaxel”, “(1.00” for “(4.96”, “solvent. […]” for “solvent.”

[4] = drug loading capacity (ratio of amount API:(API+excipient)); details: docetaxel 1.25 mg + compound 4.0 mg
Experimental: as §4
20 mg of example 1 was dispensed into a 25 mL round bottom flask and dissolved in methanol (3 mL). 800 μL of a stock solution of docetaxel in methanol (5 mg/mL) was added. The solution was evaporated to dryness in a rotary evaporator. Final drying was performed in a desiccator to remove residual solvent. Hydration of the dried film was performed by adding water for injection (1.0 mL) to a concentration of 4 mg/mL of docetaxel. The 4 mg/mL concentration was further diluted with 0.9% sodium chloride according to the table below.
as §5
as §5, with “4.5” for “11”, “compound” for “example”, “1500” for “740”, “cabazitaxel” for “docetaxel”, “(1.00” for “(4.96”
as §5, with “4.5” for “11”, “compound” for “example”, “1500” for “740”, “cyclosporin” for “docetaxel”, “(1.00” for “(4.96”
4.0 mg of compound 2 was dispensed into a 25 mL round bottom flask and dissolved in methanol (3 mL). 250 μL of a stock solution of docetaxel in methanol (5 mg/mL) was added. The solution was evaporated to dryness in a rotary evaporator. Final drying was performed in a desiccator to remove residual solvent. Hydration of the dried film was performed by adding water for injection (1.25 mL). […]
as §5, with “4.5” for “11”, “compound 3” for “example 1”, “(3” for “(2”, “305” for “740”
as §5, with “4.5” for “11”, “compound 3” for “example 1”, “(3” for “(2”, “[…]” for “740”

[5] = ratio 3:1, 0.9% NaCl, docetaxel conc. 0.25 mg/mL
[6] = ratio 3:1, 0.9% NaCl, docetaxel conc. 0.5 mg/mL
[7] = ratio 3:1, 0.9% NaCl, docetaxel conc. 1 mg/mL
[8] = 1.25 mg docetaxel + 4.0 mg compound, water 1.25 mL, mixed 1:1 v/v with 0.9% NaCl

Row | Particle size ([1]; time 0 h) | Polydispersity index ([1]; time 0 h) | Particle size ([1]; time 1 h) | Polydispersity index ([1]; time 1 h) | Particle size ([1]; time 2 h) | Polydispersity index ([1]; time 2 h) | Particle size ([1]; time 4 h) | Polydispersity index ([1]; time 4 h) | Particle size ([1]; time 6 h) | Polydispersity index ([1]; time 6 h) | Particle size ([1]; time 24 h) | Polydispersity index ([1]; time 24 h) | appearance of formulation [2] | Compound | change of particle size and polydispersity index over time [1] | further results
1 | 34.56 nm | 0.26 | 54.37 nm | 0.14 | 56.46 nm | 0.12 | 58.90 nm | 0.11 | 59.79 nm | 0.12 | 78.72 nm | 0.08 | yellow transparent solution | COc1cc(C)c(/C=C/C(C)=C/C=C/C(C)=C/C(=O)N(CC(O)CS(=O)(=O)[O-])C2CCCCC2)c(C)c1C.[Na+] (stereo not shown) [Compound 4] | Increase in the particle size and variations of the polydispersity index over time were noted | Particle size [3, 5]: 8.7 nm; Polydispersity index [3, 5]: 0.31; Particle size [3, 6]: 8.9 nm; Polydispersity index [3, 6]: 0.25; Particle size [3, 7]: 8.9 nm; Polydispersity index [3, 7]: 0.32
2 | – | – | – | – | – | – | – | – | – | – | – | – | yellow transparent solution | COc1cc(C)c(/C=C/C(C)=C/C=C/C(C)=C/C(=O)N(CCCS(=O)(=O)[O-])C2CCCCC2)c(C)c1C.[Na+] [Compound 2] | – | Drug loading capacity [4]: 24%; Particle size [3, 8]: 17.9 nm; Polydispersity index [3, 8]: 0.72
3 | 52.29 nm | 0.16 | 62.51 nm | 0.13 | 70.07 nm | 0.12 | 78.98 nm | 0.12 | 85.10 nm | 0.10 | 107.4 nm | 0.10 | – | COc1cc(C)c(/C=C/C(C)=C/C=C/C(C)=C/C(=O)N(CCO)Cc2ccc(N)cc2S(=O)(=O)[O-])c(C)c1C.[Na+] [Compound 10] | Increase in the particle size and minor decrease the polydispersity index over time were noted | –
